Measured values published in PMC10787893, “Expression and characterization of the new antimicrobial peptide AP138L-arg26 anti Staphylococcus aureus” (Applied Microbiology and Biotechnology, 2024).
Values after ≈ are worked out from the molar mass of the structure shown. Where two headings read alike, the source gives them in different places. Bridge positions count the residues as written; N and C are the ends. Peptide text beside a SMILES is read from it.

Tests used:
[1] = system: Staphylococcus aureus ATCC 25923; experiment: MIC and MBC, broth microdilution; format: cell-based
Experimental: (§1) To determine the MIC values of AP138L-arg26, we used the broth microdilution technique as previously described (Andrews. [2001]; Wiegand et al. [2008]). In brief, AP138L-arg26 peptide were diluted from 1280 to 2.5 µg/mL and added to a 96-cells plate with 10 µL per well. The bacteria in the logarithmic stage were diluted to 10^5 CFU/mL with 90 µL per well. […] The MBC method was also based on the CLSI 2021 guidelines.

[2] = system: Staphylococcus aureus ATCC 43300; experiment: MIC and MBC, broth microdilution; format: cell-based
Experimental: as §1

[3] = system: Staphylococcus aureus CAAS-FRI-2023-01; experiment: MIC and MBC, broth microdilution; format: cell-based
Experimental: as §1

[4] = system: Staphylococcus aureus CAAS-FRI-2023-02; experiment: MIC and MBC, broth microdilution; format: cell-based
Experimental: as §1

[5] = system: Staphylococcus aureus CVCC 546; experiment: MIC and MBC, broth microdilution; format: cell-based
Experimental: as §1

[6] = system: Staphylococcus epidermidis ATCC 12228; experiment: MIC and MBC, broth microdilution; format: cell-based
Experimental: as §1

[7] = system: Staphylococcus epidermidis ATCC 35984; experiment: MIC and MBC, broth microdilution; format: cell-based
Experimental: as §1

[8] = system: Streptococcus agalactiae ATCC 13813; experiment: MIC and MBC, broth microdilution; format: cell-based
Experimental: as §1

[9] = system: Streptococcus agalactiae CAU-FRI-2022-01; experiment: MIC and MBC, broth microdilution; format: cell-based
Experimental: as §1

[10] = system: Streptococcus agalactiae CAU-FRI-2022-02; experiment: MIC and MBC, broth microdilution; format: cell-based
Experimental: as §1

[11] = system: Streptococcus dysgalactiae CVCC 3938; experiment: MIC and MBC, broth microdilution; format: cell-based
Experimental: as §1

[12] = system: intracellular S. aureus CVCC 546 in mouse macrophages RAW264.7 and bovine endometrial epithelial cells BNCC359233; experiment: Intracellular antibacterial activity; format: cell-based, Staphylococcus aureus; details: 5 × MIC; n = 3
Text: The method of intracellular bactericidal effect was described previously (Wang et al. [2018]). Only the number of cells and bacteria changed from 2.5 × 10^5 to 2 × 10^5 cells/mL.

S. aureus CVCC 546 [13] = experiment: Salt stability, MIC after treatment; format: physicochemical, Staphylococcus aureus; details: then MIC assay
S. aureus CVCC 546 [14] = experiment: Artificial gastric juice stability, MIC after treatment; format: in vitro ADME, Staphylococcus aureus
S. aureus CVCC 546 [15] = experiment: Artificial intestinal juice (trypsin) stability, MIC after treatment; format: in vitro ADME, Staphylococcus aureus; details: then MIC assay
[16] = system: mouse macrophages RAW264.7; experiment: Cytotoxicity, MTT method; format: cell-based; details: 256 µg/mL; RAW264.7, MTT
Text: The cytotoxicity of AP138L-arg26 to mouse macrophages RAW264.7 was detected by the thiazolyl blue tetrazolium bromide (MTT) method as described previously (Shen et al. [2021]).

ICR mice = experiment: Acute toxicity in mice; format: in vivo, mouse
Experimental: AP138L-arg26 was administrated by intraperitoneal injection (n = 4 per group, 10 mg/kg, body weight 25 g) every day for 1 week (Shi et al. [2022]). After 7 days, the mice were euthanized to collect anticoagulant whole-blood and tissues (liver, spleen, kidney, and lung), which were used for whole blood and biochemical detection, or tissue sections (hematoxylin-eosin (HE) staining), respectively.

S. aureus CVCC 546 [17] = experiment: SYTO9/PI membrane integrity assay; format: cell-based, Staphylococcus aureus; details: 2 × MIC, 37 °C, 1 h; 1 × 10^9 CFU/mL; fluorescence microscopy
Text: To explore the disruption of bacterial cell membranes by the AP138L-arg26, a SYTO9/PI kit was used to detect the integrity of cell membranes (L7007 LIVE/DEAD^R BacLight™ Bacerial Viability Kits). The unique feature of this kit is that SYTO9 alone can pass through integral cell membranes, while PI can only penetrate damaged cell membranes. […] Finally, the results were observed using fluorescence microscopy.

S. aureus = experiment: Membrane fluidity assay, Laurdan GP; format: cell-based, Staphylococcus aureus; details: 2 × MIC; 10 µM Laurdan; untreated 0.22
Experimental: The final concentration of 10 µM Laurdan was used to detect the effect of AP138L-arg26 on bacterial cell membrane fluidity (Shi et al. [2022]). Briefly, (1) co-incubation of bacteria with Laurdan; (2) the stained bacteria are co-incubated with the peptide; (3) spectrophotometer (Tecan, Männedorf, Switzerland) detection. The calculation formula: generalized polarization (GP) = (I435 − I490)/(I435 + I490).

S. aureus CVCC 546 [18] = details: for FIC: FIC = MICc/MICa
Experimental: The synergistic effects of AP138L-arg26 with different antibiotics were evaluated using a checkerboard assay. The synergistic effect was calculated using the FICI as follows: FICI = FIC of AP138L-arg26 + FIC of antibiotic; FIC = MICc/MICa, where MICc is the MIC of the peptide and antibiotic in combination, and MICa is the MIC of the peptide/antibiotic alone (Blier et al. [2010]). Three parallel experiments were performed for each group. The efficacy of combination therapy was defined as FICI ≤ 0.5, 0.5 < FICI ≤ 1, 1 < FICI ≤ 4, and FICI > 4 indicating synergy, addition, no difference, and antagonism, respectively.

[19] = 99.99% of bacteria killed, plated on MHA
[20] = broth microdilution, 10^5 CFU/mL, 37 °C, 18 h

In the case of `CC[C@H](C)[C@@H]1NC(=O)[C@H](CO)NC(=O)[C@H](CCCCN)NC(=O)[C@@H]2CSSC[C@@H](C(=O)N[C@@H](Cc3ccc(O)cc3)C(=O)O)NC(=O)[C@H](CCCCN)NC(=O)[C@@H]3CSSC[C@H](NC(=O)[C@H](CCCNC(=N)N)NC(=O)[C@H](CC(C)C)NC(=O)[C@H](CC(=O)O)NC(=O)[C@H](CC(=O)O)NC(=O)[C@H](CCC(=O)O)NC(=O)[C@H](CO)NC(=O)[C@H](Cc4c[nH]c5ccccc45)NC(=O)[C@@H]4CCCN4C(=O)CNC(=O)[C@H](CC(N)=O)NC(=O)[C@@H](NC(=O)CNC(=O)[C@H](Cc4ccccc4)NC(=O)CN)CSSC[C@H](NC(=O)[C@H](Cc4ccc(O)cc4)NC(=O)CNC(=O)CNC(=O)[C@H](CCCNC(=N)N)NC(=O)[C@H](Cc4ccc(O)cc4)NC(=O)CNC(=O)[C@H](CCCCN)NC1=O)C(=O)N[C@@H](C)C(=O)N[C@@H](CCCCN)C(=O)NCC(=O)NCC(=O)N[C@@H](Cc1ccccc1)C(=O)N[C@@H](C(C)C)C(=O)N3)C(=O)N[C@@H](Cc1c[nH]cn1)C(=O)N[C@@H](CCCNC(=N)N)C(=O)N[C@@H](Cc1c[nH]cn1)C(=O)N2` [AP138L-arg26] (H-GFGCNGPWSEDDLRCHRHCKSIKGYRGGYCAKGGFVCKCY-OH; disulfide 4-30, 15-37, 19-39; N-terminus and C-terminus assumed), the MBC [1, 19] is reported as 32 µg/mL (≈ 7.18 µM), the MIC [1, 20] is reported as 16 µg/mL (≈ 3.59 µM) and the MBC [2, 19] is reported as 8 µg/mL (≈ 1.8 µM). The MIC [2, 20] was 8 µg/mL (≈ 1.8 µM), the MBC [3, 19] was 16 µg/mL (≈ 3.59 µM) and the MIC [3, 20] was 4 µg/mL (≈ 0.898 µM). For the same molecule, the MBC [4, 19] was 32 µg/mL (≈ 7.18 µM), the MIC [4, 20] was 8 µg/mL (≈ 1.8 µM) and the MBC [5, 19] was 32 µg/mL (≈ 7.18 µM). For the same molecule, the MIC [5, 20] was 4 µg/mL (≈ 0.898 µM), the MBC [6, 19] was 16 µg/mL (≈ 3.59 µM) and the MIC [6, 20] was 4 µg/mL (≈ 0.898 µM). It also gave an MBC [7, 19] of 16 µg/mL (≈ 3.59 µM), an MIC [7, 20] of 8 µg/mL (≈ 1.8 µM) and an MBC [8, 19] of 8 µg/mL (≈ 1.8 µM). The MIC [8, 20] was 4 µg/mL (≈ 0.898 µM), the MBC [9, 19] was 32 µg/mL (≈ 7.18 µM) and the MIC [9, 20] was 4 µg/mL (≈ 0.898 µM). For the same molecule, the MBC [10, 19] was 32 µg/mL (≈ 7.18 µM), the MIC [10, 20] was 4 µg/mL (≈ 0.898 µM) and the MBC [11, 19] was 32 µg/mL (≈ 7.18 µM). The MIC [11, 20] was 4 µg/mL (≈ 0.898 µM), the intracellular bacteria killed [12] was “more than 70%” and the “MIC, CaCl2 (2.5 mM)” value (S. aureus CVCC 546 [13]; peptide incubated with 2.5 mM CaCl2 for 1 h at 37 °C) was 8 µg/mL. For the same molecule, the “MIC, KCl (2.5 mM)” value (S. aureus CVCC 546 [13]; peptide incubated with 2.5 mM KCl for 1 h at 37 °C) was 8 µg/mL, the “MIC, MgCl2 (2.5 mM)” value (S. aureus CVCC 546 [13]; peptide incubated with 2.5 mM MgCl2 for 1 h at 37 °C) was 16 µg/mL and the “MIC, CaCl2 (5 mM)” value (S. aureus CVCC 546 [13]; peptide incubated with 5 mM CaCl2 for 1 h at 37 °C) was 16 µg/mL. The “MIC, KCl (5 mM)” value (S. aureus CVCC 546 [13]; peptide incubated with 5 mM KCl for 1 h at 37 °C) was 8 µg/mL, the “MIC, MgCl2 (5 mM)” value (S. aureus CVCC 546 [13]; peptide incubated with 5 mM MgCl2 for 1 h at 37 °C) was 16 µg/mL and the “MIC, NaCl (50 mM)” value (S. aureus CVCC 546 [13]; peptide incubated with 50 mM NaCl for 1 h at 37 °C) was 8 µg/mL. The “MIC, NaCl (100 mM)” value (S. aureus CVCC 546 [13]; peptide incubated with 100 mM NaCl for 1 h at 37 °C) was 8 µg/mL, the “MIC, NaCl (150 mM)” value (S. aureus CVCC 546 [13]; peptide incubated with 150 mM NaCl for 1 h at 37 °C) was 8 µg/mL and the “MIC, NaCl (200 mM)” value (S. aureus CVCC 546 [13]; peptide incubated with 200 mM NaCl for 1 h at 37 °C) was 16 µg/mL. The “MIC, NaCl (300 mM)” value (S. aureus CVCC 546 [13]; peptide incubated with 300 mM NaCl for 1 h at 37 °C) was 16 µg/mL, the “MIC, CaCl2 ([…])” value (S. aureus CVCC 546 [13]; peptide incubated with […] CaCl2 for 1 h at 37 °C) was 8 µg/mL and the “MIC, KCl ([…])” value (S. aureus CVCC 546 [13]; peptide incubated with […] KCl for 1 h at 37 °C) was 8 µg/mL. For the same molecule, the “MIC, MgCl2 ([…])” value (S. aureus CVCC 546 [13]; peptide incubated with […] MgCl2 for 1 h at 37 °C) was 8 µg/mL, the “antimicrobial activity after gastric juice” value (S. aureus CVCC 546 [14]; artificial gastric juice, MIC assay) was “unaffected” and the “MIC, Gastric juice (0.25 h)” value (S. aureus CVCC 546 [14]; peptide in artificial gastric juice for 0.25 h, then MIC assay) was 4 µg/mL (≈ 0.898 µM). For the same molecule, the “MIC, Gastric juice (0.5 h)” value (S. aureus CVCC 546 [14]; peptide in artificial gastric juice for 0.5 h, then MIC assay) was 4 µg/mL (≈ 0.898 µM), the “MIC, Gastric juice (1 h)” value (S. aureus CVCC 546 [14]; peptide in artificial gastric juice for 1 h, then MIC assay) was 4 µg/mL (≈ 0.898 µM) and the “MIC, Gastric juice (2 h)” value (S. aureus CVCC 546 [14]; peptide in artificial gastric juice for 2 h, then MIC assay) was 8 µg/mL (≈ 1.8 µM). The “MIC, Intestinal juice (0.25 h)” value (S. aureus CVCC 546 [15]; peptide in artificial intestinal juice for 0.25 h) was > 64 µg/mL, the “MIC, Intestinal juice (0.5 h)” value (S. aureus CVCC 546 [15]; peptide in artificial intestinal juice for 0.5 h) was > 64 µg/mL and the “MIC, Intestinal juice (1 h)” value (S. aureus CVCC 546 [15]; peptide in artificial intestinal juice for 1 h) was > 64 µg/mL. The “MIC, Intestinal juice (2 h)” value (S. aureus CVCC 546 [15]; peptide in artificial intestinal juice for 2 h) was > 64 µg/mL, the cell viability [16] was “over 75%” and the “histology (HE) of heart, kidney, spleen, lung and liver” value (ICR mice; 10 mg/kg i.p. daily for a week) was “no hyperemia, bleeding, hyperplasia, or other lesions”. The “whole blood detection indexes and biochemical indexes compared with the control group” value (ICR mice; 10 mg/kg i.p. daily for a week) was “no significant differences”, the “difference in biochemical index versus control” value (ICR mice; 10 mg/kg i.p. for 1 week) was < 4% and the “difference in whole blood detection indexes versus control” value (ICR mice; 10 mg/kg i.p. for 1 week) was < 4.5%. For the same molecule, the “cells stained red by PI” value (S. aureus CVCC 546 [17]) was “more than 50%”, the “Laurdan GP” value (S. aureus) was 0.18 and the FIC (S. aureus CVCC 546 [18]; combination AP138L-arg26-Streptomycin sulfate) was 0.5. For the same molecule, the FIC (S. aureus CVCC 546 [18]; combination AP138L-arg26-ampicillin) was 1, the FIC (S. aureus CVCC 546 [18]; combination AP138L-arg26-ceftiofur sodium) was 0.0625 and the MICa (S. aureus CVCC 546 [18]; MIC of peptide/antibiotic alone, three parallel experiments) was 4 µg/mL. It also gave an MICc (S. aureus CVCC 546 [18]; in combination AP138L-arg26-Streptomycin sulfate) of 2 µg/mL, an MICc (S. aureus CVCC 546 [18]; in combination AP138L-arg26-ampicillin) of 4 µg/mL and an MICc (S. aureus CVCC 546 [18]; in combination AP138L-arg26-ceftiofur sodium) of 0.25 µg/mL.
